Measured values from paper PMC11487425 (RSC Medicinal Chemistry, 2024).
Like-named read-outs stand apart in the source and are kept apart here.

Tests used:
DYRK1A = conditions: cited from earlier work
[1] = rat liver microsomes
DYRK1B [2] = target: T1, DYRK1B (Homo sapiens, UniProt Q9Y463); test: DYRK1B radiometric kinase assay with Woodtide substrate peptide; type: biochemical; conditions: read-out: % inhibition at 1 μM, DYRK1B
CLK1 [3] = target: T2, CLK1 (Homo sapiens, UniProt P49759); test: Radiometric kinase assay; type: biochemical
CLK1 [4] = target: T2, CLK1; test: Z'-LYTE kinase activity assay
DYRK1B [5] = target: T1, DYRK1B; test: Z'-LYTE kinase activity assay
DYRK2 = target: T3, DYRK2 (Homo sapiens, UniProt Q92630); test: LanthaScreen kinase binding assay
T3 sequence (Q92630 1-601): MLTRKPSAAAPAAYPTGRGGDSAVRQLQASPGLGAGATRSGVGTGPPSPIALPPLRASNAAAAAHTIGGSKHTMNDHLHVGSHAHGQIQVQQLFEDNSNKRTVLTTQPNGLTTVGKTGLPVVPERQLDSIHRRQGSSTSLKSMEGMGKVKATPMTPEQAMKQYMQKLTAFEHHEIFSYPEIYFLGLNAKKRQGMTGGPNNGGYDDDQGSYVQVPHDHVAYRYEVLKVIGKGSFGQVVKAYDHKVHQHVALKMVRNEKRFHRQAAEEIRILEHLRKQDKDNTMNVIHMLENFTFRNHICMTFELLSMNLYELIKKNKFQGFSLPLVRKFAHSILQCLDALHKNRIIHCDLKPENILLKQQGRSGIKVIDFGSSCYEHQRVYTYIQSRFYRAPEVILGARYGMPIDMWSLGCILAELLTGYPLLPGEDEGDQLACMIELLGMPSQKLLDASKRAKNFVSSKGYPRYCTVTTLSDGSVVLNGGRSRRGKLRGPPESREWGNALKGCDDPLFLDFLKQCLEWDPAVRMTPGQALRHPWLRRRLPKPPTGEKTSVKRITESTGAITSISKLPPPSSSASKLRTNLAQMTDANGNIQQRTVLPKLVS

T1 sequence (Q9Y463 whole entry): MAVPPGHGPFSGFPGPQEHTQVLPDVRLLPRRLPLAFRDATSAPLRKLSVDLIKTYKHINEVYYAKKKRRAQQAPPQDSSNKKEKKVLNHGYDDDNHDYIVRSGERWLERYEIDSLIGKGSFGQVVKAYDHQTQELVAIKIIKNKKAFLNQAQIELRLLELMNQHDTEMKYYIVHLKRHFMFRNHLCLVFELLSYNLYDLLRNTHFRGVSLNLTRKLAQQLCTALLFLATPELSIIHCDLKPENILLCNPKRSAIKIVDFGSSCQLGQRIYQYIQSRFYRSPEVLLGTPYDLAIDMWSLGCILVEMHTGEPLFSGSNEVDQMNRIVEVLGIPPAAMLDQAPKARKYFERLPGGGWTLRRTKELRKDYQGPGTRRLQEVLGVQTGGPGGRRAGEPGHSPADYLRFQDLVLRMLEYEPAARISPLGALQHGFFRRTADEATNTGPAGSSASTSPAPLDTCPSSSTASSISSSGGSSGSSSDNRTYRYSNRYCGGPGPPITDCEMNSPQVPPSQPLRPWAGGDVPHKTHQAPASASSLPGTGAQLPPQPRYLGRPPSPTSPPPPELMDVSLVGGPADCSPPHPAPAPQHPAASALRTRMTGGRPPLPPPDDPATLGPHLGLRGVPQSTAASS
T2 sequence (P49759 whole entry): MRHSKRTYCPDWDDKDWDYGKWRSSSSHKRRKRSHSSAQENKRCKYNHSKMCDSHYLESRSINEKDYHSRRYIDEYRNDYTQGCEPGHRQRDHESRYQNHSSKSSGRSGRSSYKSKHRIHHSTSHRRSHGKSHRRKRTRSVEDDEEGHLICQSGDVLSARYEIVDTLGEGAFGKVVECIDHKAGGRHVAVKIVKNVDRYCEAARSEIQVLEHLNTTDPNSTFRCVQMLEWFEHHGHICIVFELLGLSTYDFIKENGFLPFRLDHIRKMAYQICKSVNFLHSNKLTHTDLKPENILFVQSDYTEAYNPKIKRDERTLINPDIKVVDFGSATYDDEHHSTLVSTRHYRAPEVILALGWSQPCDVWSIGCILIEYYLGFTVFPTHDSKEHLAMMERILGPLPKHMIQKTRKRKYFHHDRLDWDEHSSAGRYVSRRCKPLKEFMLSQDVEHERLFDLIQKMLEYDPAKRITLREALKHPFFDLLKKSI

## CC(=O)c1cc2cc(O)ccc2s1 [1-(5-hydroxy-1-benzothiophen-2-yl)ethan-1-one]
DYRK1A; read-out: IC50 DYRK1A
  IC50: 200 nM

## COc1cccc2c1-c1c(sc3ccccc13)C2=O [4a, 10-Methoxy-6H-benzo[b]indeno[1,2-d]thiophen-6-one]
[1]
  microsomal stability in words: rapidly metabolized

## COc1cccc2c1C(=O)c1sc3ccccc3c1-2 [4d, 7-Methoxy-6H-benzo[b]indeno[1,2-d]thiophen-6-one]
DYRK1B [2]
  inhibition at 1 µM: 7%
[1]
  microsomal stability in words: rapidly metabolized

## COc1ccc2sc3c(c2c1)-c1ccccc1C3=O [4e, 2-Methoxy-6H-benzo[b]indeno[1,2-d]thiophen-6-one]
DYRK1B [2]
  inhibition at 1 µM: 68%

## COc1ccc2sc3c(c2c1)-c1c(OC)cccc1C3=O [4f, 2,10-Dimethoxy-6H-benzo[b]indeno[1,2-d]thiophen-6-one]
DYRK1B [2]
  inhibition at 1 µM: < 5%
[1]
  microsomal stability in words: rapidly metabolized

## O=C1c2ccccc2-c2c1sc1ccc(O)cc21 [4i, 2-Hydroxy-6H-benzo[b]indeno[1,2-d]thiophen-6-one]
DYRK1B [2]
  inhibition at 1 µM: 89%

## COc1ccc2c(c1)-c1c(sc3ccc(O)cc13)C2=O [4j, 2-Hydroxy-9-methoxy-6H-benzo[b]indeno[1,2-d]thiophen-6-one]
DYRK1B [2]
  inhibition at 1 µM: 93%

## COc1ccc2c(c1)C(=O)c1sc3ccc(O)cc3c1-2 [4k, 2-Hydroxy-8-methoxy-6H-benzo[b]indeno[1,2-d]thiophen-6-one]
DYRK1B [2]
  inhibition at 1 µM: 78%
CLK1 [3]
  IC50: 20 nM
CLK1 [4]
  IC50: 1080 nM
DYRK1B [5]
  IC50: 206 nM
DYRK2
  IC50: 186 nM

## O=C(c1ccccc1)c1cc2cc(O)ccc2s1 [5c]
DYRK1A; read-out: IC50 for DYRK1A, benzothiophenyl-acetophenones 5, Fig. 2
  IC50: 2000 nM
